Measurements published in PMC7944860 (Antiviral Research, 2021).
Where “and” joins values, the source holds several entries; their conditions need not be identical. Equal values may be shown once. Read-outs that look alike come from different tables or passages of the source.

Columns and labels:
Cell viability assay = conditions: human, MRC-5 cells
HCoV-OC43 [1] = test: HCoV-OC43 focus reduction assay on MRC-5 cells; format: cell-based; conditions: for selectivity index: HCoV-OC43, ratio of CC50 and EC50
Cytotoxicity assay = conditions: human, Huh7-hACE2 cells
SARS-CoV2 [2] = test: microbe, parasite or virus in culture; format: cell-based; conditions: for EC50: read-out: EC50 (μM) (mean ± SD)
SARS-CoV2 [3] = conditions: 2020, cited from earlier work; for increase of remdesivir inhibitory activity (synergy): ref Bafna et al.
HCoV-OC43 [4] = test: HCoV-OC43 virus yield reduction assay on MRC-5 cells; format: cell-based; conditions: for EC50: Betacoronavirus 1, OC43, MRC5, 24 h, read-out: EC50 (μM) (mean ± SD), virus yield reduction; for Virus titer reduction Log10 (mean ± SD) at highest tested dose: FFU/mL vs infected untreated control
SARS-CoV2 [5] = test: microbe, parasite or virus in culture; format: cell-based; conditions: for EC50: read-out: EC50 (μM) (mean ± SD), virus yield reduction
MRC-5 cells = test: Cell viability assay; conditions: read-out: CC50 (μM) (mean ± SD), 20 h, MTS
Huh7-hACE2 cells = test: Cytotoxicity assay; conditions: read-out: CC50 (μM) (mean ± SD), 20 h, Alamar Blue
[6] = Betacoronavirus 1, OC43, MRC5, 20 h, read-out: EC50 (μM) (mean ± SD), HCoV-OC43, MRC-5 cells, 20 h, focus reduction
[7] = Severe acute respiratory syndrome coronavirus 2, 20 h
[8] = HCoV-OC43, MRC-5 cells, 20 h, focus reduction
[9] = read-out: EC50 (μM) (mean ± SD), HCoV-OC43, MRC-5 cells, 20 h, focus reduction

Structure (SMILES) | CC50 at 20 h (Cell viability assay) | EC50 (HCoV-OC43 [1]; [6]) | CC50 at 20 h (Cytotoxicity assay) | EC50 (SARS-CoV2 [2]; [7]) | also measured
COc1ccc2c(O[C@@H]3C[C@H]4C(=O)N[C@]5(C(=O)NS(=O)(=O)C6CC6)C[C@H]5/C=C\CCCCN(C)C(=O)[C@@H]4C3)cc(-c3nc(C(C)C)cs3)nc2c1C [Simeprevir] | 11.1 ± 2.3 µM | ~2.1 µM | 47.5 ± 41 µM | ~9.3 µM | increase of remdesivir inhibitory activity (synergy) (SARS-CoV2 [3]): ≤ 10 fold
CC1(C)CCC(CN2CCN(c3ccc(C(=O)NS(=O)(=O)c4ccc(NCC5CCOCC5)c([N+](=O)[O-])c4)c(Oc4cnc5[nH]ccc5c4)c3)CC2)=C(c2ccc(Cl)cc2)C1 [Venetoclax] | 10.6 ± 1.5 µM | 3.5 ± 0.5 µM | 22 ± 6.2 µM | ~6.2 µM | 
C[C@@H]1C/C=C/C=C/C=C/C=C/[C@H](O[C@@H]2O[C@H](C)[C@@H](O)[C@H](N)[C@@H]2O)C[C@@H]2O[C@](O)(C[C@@H](O)C[C@H]3O[C@@H]3/C=C/C(=O)O1)C[C@H](O)[C@H]2C(=O)O [Natamycin] | 47.3 ± 4.4 µM |  | 35.9 ± 13.4 µM | 24.3 ± 4.4 µM | EC50 (μM) (mean ± SD) (HCoV-OC43 [1]; [8]): no antiviral activity
Cc1ccc(C(=O)Nc2ccc(CN3CCN(C)CC3)c(C(F)(F)F)c2)cc1C#Cc1cnc2cccnn12 [Ponatinib] | 3.1 ± 0.5 µM | 0.1 ± 0.05 µM | 8.7 ± 3.8 µM | 1.1 ± 0.2 µM | 
Cc1ccc(C(=O)Nc2ccc(S(=O)(=O)O)c3cc(S(=O)(=O)O)cc(S(=O)(=O)O)c23)cc1NC(=O)c1cccc(NC(=O)Nc2cccc(C(=O)Nc3cc(C(=O)Nc4ccc(S(=O)(=O)O)c5cc(S(=O)(=O)O)cc(S(=O)(=O)O)c45)ccc3C)c2)c1 [Suramin] | > 1000 µM | 19.3 ± 4.3 µM | > 100 µM | 64 ± 6.6 µM | 
CCc1c2c(nc3ccc(OC(=O)N4CCC(N5CCCCC5)CC4)cc13)-c1cc3c(c(=O)n1C2)COC(=O)[C@]3(O)CC [Irinotecan] | 63.4 ± 11.4 µM |  | > 100 µM | 85.2 ± 17 µM | EC50 (μM) (mean ± SD) (HCoV-OC43 [1]; [8]): no antiviral activity
COC(=O)N[C@H](C(=O)N1CCC[C@H]1c1nc(-c2ccc3c(c2)O[C@@H](c2ccccc2)n2c-3cc3cc(-c4c[nH]c([C@@H]5CCCN5C(=O)[C@@H](NC(=O)OC)C(C)C)n4)ccc32)c[nH]1)C(C)C [Elbasvir] | > 1000 µM | ~1.5 µM | > 1000 µM | ~23 µM | selectivity index (HCoV-OC43 [1]): higher than 600; EC50 (HCoV-OC43 [4]): 1.3 ± 0.4 µM; Virus titer reduction Log10 (mean ± SD) at highest tested dose (HCoV-OC43 [4]; HCoV-OC43, 100 μM): 1.4 ± 0.2 (100 μM) Log10; increase of remdesivir's apparent potency in preventing SARS-CoV2 replication (SARS-CoV2 [3]; in combination with grazoprevir (Zepatier), ref Nguyenla et al.): 25 fold; Virus titer reduction Log10 (mean ± SD) at highest tested dose (SARS-CoV2 [5]): 0.6 and 0.6 ± 0.2 (100 μM) Log10; EC50 (SARS-CoV2 [5]; [7]): 14.4 ± 7.9 µM
CCc1cc2c(cc1N1CCC(N3CCOCC3)CC1)C(C)(C)c1[nH]c3cc(C#N)ccc3c1C2=O [Alectinib] | > 1000 µM | 0.6 ± 0.2 µM |  |  | EC50 (HCoV-OC43 [4]): 1 ± 0.1 µM; Virus titer reduction Log10 (mean ± SD) at highest tested dose (HCoV-OC43 [4]; HCoV-OC43, 33 μM): 2.9 ± 0.1 (33 μM) Log10; EC50 (μM) (mean ± SD) (SARS-CoV2 [2]): no activity
CC1(C)[C@@H](OC(=O)CCC(=O)O)CC[C@]2(C)[C@H]3C(=O)C=C4[C@@H]5C[C@@](C)(C(=O)O)CC[C@]5(C)CC[C@@]4(C)[C@]3(C)CC[C@@H]12 [Carbenoxolone] | 251 ± 17 µM | 45.7 ± 8 µM | > 100 µM | 66 ± 11 µM | 
COc1cc([C@@H]2c3cc4c(cc3[C@@H](O[C@@H]3O[C@@H]5CO[C@@H](c6cccs6)O[C@H]5[C@H](O)[C@H]3O)[C@H]3COC(=O)[C@H]23)OCO4)cc(OC)c1O [Teniposide] | 701 ± 281 µM |  | > 100 µM | 97 ± 0.7 µM | EC50 (μM) (mean ± SD) (HCoV-OC43 [1]; [8]): no antiviral activity
CCN1CCN(C(=O)N[C@@H](C(=O)N[C@@H]2C(=O)N3C(C(=O)O)=C(CSc4nnnn4C)CS[C@H]23)c2ccc(O)cc2)C(=O)C1=O [Cefoperazone] | > 1000 µM |  |  |  | EC50 (μM) (mean ± SD) (HCoV-OC43 [1]; [8]): no antiviral activity
Cn1nnc(-c2ccc(-c3ccc(N4C[C@H](COP(=O)(O)O)OC4=O)cc3F)cn2)n1 [Tedizolid, Tedizolid phosphate] |  |  |  |  | CC50 (MRC-5 cells): > 1000 µM; EC50 (HCoV-OC43 [1]; [9]): 94 ± 25 µM
C=C[C@@H]1C[C@]1(NC(=O)[C@@H]1C[C@@H]2CN1C(=O)[C@H](C(C)(C)C)NC(=O)O[C@@H]1C[C@H]1CCCCCc1nc3ccc(OC)cc3nc1O2)C(=O)NS(=O)(=O)C1CC1.O [Grazoprevir] |  |  |  |  | CC50 (MRC-5 cells): 70 ± 12.8 µM; EC50 (HCoV-OC43 [1]; [9]): 11 ± 1.1 µM; CC50 (Huh7-hACE2 cells): 118 ± 6 µM; EC50 (SARS-CoV2 [2]): ~16 µM and 16 µM; increase of remdesivir inhibitory activity (synergy) (SARS-CoV2 [3]): ≤ 10 fold; Virus titer reduction Log10 (mean ± SD) at highest tested dose (SARS-CoV2 [5]): 3.9 and 3.9 ± 0.07 (100 μM) Log10; EC50 (SARS-CoV2 [5]): 3.3 ± 0.9 µM
O=C1[C@@H]2[C@H]3CC[C@H](C3)[C@@H]2C(=O)N1C[C@@H]1CCCC[C@H]1CN1CCN(c2nsc3ccccc23)CC1 [Lurasidone] | > 1000 µM | 1.1 ± 0.4 µM | > 1000 µM | 18 ± 4.6 µM | selectivity index (HCoV-OC43 [1]): higher than 600; EC50 (HCoV-OC43 [4]): 8.3 ± 2 µM; Virus titer reduction Log10 (mean ± SD) at highest tested dose (HCoV-OC43 [4]; HCoV-OC43, 100 μM): 6.3 ± 1.5 (100 μM) Log10; Virus titer reduction Log10 (mean ± SD) at highest tested dose (SARS-CoV2 [5]): 1.3 and 1.3 ± 0.3 (100 μM) Log10; EC50 (SARS-CoV2 [5]; [7]): 6.4 ± 3.9 µM
